{
  "source": "patent US20240409505A1",
  "about": "“GLUCONAMIDE SULFATE SURFACTANTS” (The Procter & Gamble Company, priority 2023, published 2024)",
  "note": "Counter-ions that a name gives are not always drawn.",
  "data": [
    {"experiment": "Final product mixed with Deionized Water at room temperature", "format": "physicochemical", "conditions": "0.0130 g of final product mixed with 1.287 g of Deionized Water at room temperature", "excerpt": "Vacuum filtered solution through Grade 4 filter paper to obtain a clear, colorless solution. […] The solution was concentrated using a rotary evaporator until mixture began to foam, then solution was transferred to a glass crystallizing dish and placed in a vacuum oven at room temperature under a partial vacuum of 3 inches of Hg internal oven pressure.", "values": [
      {"molecule": "O=C(NCc1ccccc1)[C@H](O)[C@@H](O)[C@H](O)[C@H](O)COS(=O)(=O)O", "note": "[Example 7, Sodium (2R,3R,4S,5R)-6-(benzylamino)-2,3,4,5-tetrahydroxy-6-oxohexyl Sulfate]", "appearance of mixture with Deionized Water (solubility)": "completely clear, colorless solution that foamed when shaken"},
      {"molecule": "CCCCCCCCCCCCNC(=O)[C@H](O)[C@@H](O)[C@H](O)[C@H](O)COS(=O)(=O)O", "note": "[Example 1, Sodium (2R,3R,4S,5R)-6-(dodecylamino)-2,3,4,5-tetrahydroxy-6-oxohexyl sulfate]", "appearance of mixture with Deionized Water (solubility)": "completely clear, colorless solution that foamed when shaken"},
      {"molecule": "CCCCCCCCCCCCCCCCNC(=O)[C@H](O)[C@@H](O)[C@H](O)[C@H](O)COS(=O)(=O)O", "note": "[Example 3, Sodium (2R,3R,4S,5R)-6-(hexadecylamino)-2,3,4,5-tetrahydroxy-6-oxohexyl sulfate]", "appearance of mixture with Deionized Water (solubility)": "completely clear, colorless solution that foamed when shaken"},
      {"molecule": "CCCCCCCCCCCCCCNC(=O)[C@H](O)[C@@H](O)[C@H](O)[C@H](O)COS(=O)(=O)O", "note": "[Example 2, Sodium (2R,3R,4S,5R)-6-(tetradecylamino)-2,3,4,5-tetrahydroxy-6-oxohexyl sulfate]", "appearance of mixture with Deionized Water (solubility)": "completely clear, colorless solution that foamed when shaken"},
      {"molecule": "Sodium (2R,3R,4S,5R)-6-((2-1H-indol-2-yl)ethyl) amino)-2,3,4,5-tetrahydroxy-6-Oxohexyl Sulfate [Example 8]", "appearance of mixture with Deionized Water (solubility)": "completely clear, colorless solution that foamed when shaken"},
      {"molecule": "CCCCCCCC/C=C\\CCCCCCCCNC(=O)[C@H](O)[C@@H](O)[C@H](O)[C@H](O)COS(=O)(=O)O", "note": "[Example 4, Sodium (2R,3R,4S,5R)-2,3,4,5-tetrahydroxy-6-(((Z)-octadec-9-en-1-yl)amino)-6-oxohexyl sulfate]", "appearance of mixture with Deionized Water (solubility)": "completely clear, colorless solution that foamed when shaken"}
    ]}
  ]
}
